Measurements taken from patent publication US12194029B1, “Ethyl-1-(substitutedbenzoyl)-5-methylpyrrolo[1,2-a]quinoline-3-carboxylates as anticancer agents” (KING FAISAL UNIVERSITY, priority 2023, dated 2025).

Tests used:
[1] = test system: human breast cancer cell line (MCF-7); test: MTT cell viability / in vitro cytotoxicity assay, MCF-7; assay type: cell-based; conditions: MCF7, MCF-7 cells, 48 h incubation, read-out: anticancer IC50 MCF-7
Method: (§1) The human breast cancer cell line (MCF-7), and adeno carcinomic human alveolar basal epithelial cell line (A-549), were used in the present study for the investigation of cell viability assay of the synthesized compounds.
(§2) The cells were seeded in a 96-well flat-bottom microplate and maintained at 37° C. in 95% humidity and 5% CO2 overnight. The microplates were then treated with different concentrations (5-100 μM) of the samples. The cells were incubated for another 48 h. The wells were washed twice with PBS and 20 μL of the MTT staining solution was added to each well and the plate was incubated at 37° C. After 4 h, 100 μL of DMSO was added to each well to dissolve the formazan crystals and absorbance was recorded with a 570 nm using a microplate reader.
(§3) In vitro cytotoxicity was performed by 3-(4,5-dimethylthiazol-2-yl)-2,5-di-phenyltetrazolium bromide (MTT) assay. Tested compounds were dissolved in DMSO by heating at 95° C. for 10 min, cooled at room temperature and final stock concentration of 1 mg/mL was prepared in DMEM (final DMSO concentration was <1%). The stock solutions were serially diluted to obtain the concentration range of 25 to 400 μM using DMEM, and cells were treated in triplicates. Untreated cells represented a control group and pac. treated as a positive control. After 48 h of incubation, the media was aspirated, 100 μL MTT (1 mg/mL) was added to each well and the plate was incubated at 37° C. for 4 h. After incubation, the media/MTT solution was aspirated and 100 μL DMSO was added to all the wells. Using a multi-mode microplate reader, a uniform shaking (for 5 min) was applied to dissolve Formazan crystals and the absorbance was recorded at 570 nm. Cell viability was calculated using the following equation: […]
(§4) The 50% […] inhibitory concentration (IC50) was determined using Prism software version 7. Using graph Pad Prism Version 5.1, IC50 values of the compounds were calculated.
(§5) Statistical analysis of the cytotoxicity data was performed on GraphPad Prism. All cytotoxicity experiments were conducted in triplicates. Results were analyzed as the standard error of the mean (SEM) and one-way analysis of variance (ANOVA) and the Dunnet multiple comparison test was used to evaluate the treated groups and the control. Further Bonferroni post-tests were performed for comparison of the complex with cis-platin. Differences were considered significant when p<0.05.

[2] = test system: adeno carcinomic human alveolar basal epithelial cell line (A-549); test: MTT cell viability / in vitro cytotoxicity assay, A-549; assay type: cell-based; conditions: A549, A-549 cells, 48 h incubation, read-out: anticancer IC50 A-549
Method: as §1, §2, §3, §4, §5

| SMILES | IC50 [1] | IC50 [2] |
| --- | --- | --- |
| COC(=O)c1c(C(=O)OC)c2cc(C)c3ccccc3n2c1C(=O)c1cc(C(F)(F)F)cc(C(F)(F)F)c1 [Compound 3a, Dimethyl-1-(3,5-bis(trifluoromethyl)benzoyl)-5-methylpyrrolo[1,2-a]quinoline-2,3-dicarboxylate] | 272 nM | 433 nM |
| CCOC(=O)c1cc(C(=O)c2cc(C(F)(F)F)cc(C(F)(F)F)c2)n2c1cc(C)c1ccccc12 [Compound 3b, Ethyl-1-(3,5-bis(trifluoromethyl)benzoyl)-5-methylpyrrolo[1,2-a]quinoline-3-carboxylate] | 27 nM | 99 nM |
| COC(=O)c1c(C(=O)OC)c2cc(C)c3ccccc3n2c1C(=O)c1ccccc1[N+](=O)[O-] [Compound 3c, Dimethyl-5-methyl-1-(2-nitrobenzoyl)pyrrolo[1,2-a]quinoline-2,3-dicarboxylate] | 15 nM | 316 nM |
| CCOC(=O)c1cc(C(=O)c2ccccc2[N+](=O)[O-])n2c1cc(C)c1ccccc12 [Compound 3d, Ethyl-5-methyl-1-(2-nitrobenzoyl)pyrrolo[1,2-a]quinoline-3-carboxylate] | 85 nM | 291 nM |
| COC(=O)c1c(C(=O)OC)c2cc(C)c3ccccc3n2c1C(=O)c1ccc(F)cc1 [Compound 3i, Dimethyl-1-(4-fluorobenzoyl)-5-methylpyrrolo[1,2-a]quinoline-2,3-dicarboxylate] | 209 nM | 183 nM |
